In a melting point compilation (Tetko et al.; mined from patent text by program, amines drawn as free bases though some values may be those of a salt):

Structure (SMILES)	melting point [°C]
C[C@H]([C@](O)(Cn1cncn1)c1ccc(F)cc1F)S(=O)(=O)N1CCN(c2ncccn2)CC1	101 to 108
C=CCS(=O)(=O)c1ccc(N2CC=C(c3ccc(Cl)cc3)N2)cc1	210
Cn1cncc1C(c1cccs1)c1cccs1	78.5 to 80
CCCNc1nc2ccccn2c(=O)c1-c1ccc(NC2CCN(C(=O)OC(C)(C)C)C2)cc1 (stereo unspecified)	187 to 190
O=C1c2cccc([N+](=O)[O-])c2C(=O)N1c1cccc2ccc(O)cc12	136 to 137
CCOC(=O)COc1cc(Cl)c(C(=O)c2ccc([N+](=O)[O-])cc2)c(Cl)c1	96 to 98
Cc1ccc2nc(NC(=O)c3ccc(C(C)(C)CCC(=O)O)cc3)cn2c1	280 to 282
O=C(OCC(Cl)(Cl)Cl)Oc1cc2occ(C(=O)O)c(=O)c2cc1OC(=O)OCC(Cl)(Cl)Cl	166 to 167
CN1C(=O)SCC1C(=O)NCCO[N+](=O)[O-] (stereo unspecified)	105 to 106
CCOC(=O)C1CCCN(S(=O)(=O)c2ccc3[nH]c(=O)c4cccc5c4c3c2C5)C1 (stereo unspecified)	215 to 218
O=C(O)Cc1cc(C(=O)C=Cc2ccccc2Cl)ccc1O	235
CC(C)(C)N1C(=O)[C@@H]2C[C@H]1CN2C(=O)[C@@H](O)[C@H](Cc1ccccc1)NC(=O)[C@H](CC(N)=O)NC(=O)OCc1ccccc1	112 to 115
CN(C)C1CCn2c1nc1cc(NC(=O)c3cc4cc(C(F)(F)F)ccc4n3Cc3cccc(F)c3)cnc12 (single isomer, unassigned; (-))	203 to 205
O=C(OCCCCc1ccc2[nH]c(=O)oc2c1)C(F)(F)F	100 to 103
O=C1CN(c2ccc(Cc3ccccc3)cc2)C(=S)N1c1ccc([N+](=O)[O-])cc1	209
COc1ccc2c(n1)C1(CO2)C(=O)N(Cc2ccc3c(c2)OCCO3)c2ccccc21 (stereo unspecified)	144 to 146
O=C1CCC(N2Cc3c(CNC(=O)c4ccncc4)cccc3C2=O)C(=O)N1 (stereo unspecified)	282 to 284
NCCCCc1csc(-c2ccccn2)n1	119 to 121
CCCc1nnc(CCc2cc(OCc3ccc(OCc4nc(-c5ccccc5)oc4C)c(OC)c3)nn2-c2ccccc2)o1	85 to 86
COc1ccccc1Nc1ccc2c(c1)OCc1cc([N+](=O)[O-])ccc1C2=O	200

Structure (SMILES)	melting point [°C]
CCCCc1nc2c(N)nc3ccccc3c2n1CCOCc1ccccc1	133 to 135
CC(C)(C)c1ccc(NC(=O)c2ccccc2SSc2ccccc2C(=O)Nc2ccc(C(C)(C)C)cc2)cc1	135 to 138
CCn1cc(C(=O)O)c(=O)c2cc(F)c(N3CCN(S(=O)(=O)c4ccc(Cl)cc4)CC3)c(F)c21	231 to 233
CC(C)C[C@H](N)C(=O)N[C@@H](CC1CCCCC1)[C@@H](O)c1nccs1	140 to 141
CC(C)(C)C(NC(=O)c1cc(Cl)cc(Cl)c1)Nc1c(Nc2cccnc2Cl)c(=O)c1=O (stereo unspecified)	233 to 234
C=CCOC(=O)C(Cc1ccc2ccc3cccc4ccc1c2c34)(Cc1ccc2ccc3cccc4ccc1c2c34)C(=O)OCC=C	178 to 180
CCCn1c(-c2ccc(C#C[Si](C(C)C)(C(C)C)C(C)C)cc2)nc2cc(C#N)c(C#N)cc21	242 to 243
C=C(C)C(=O)Nc1cc(C(C)(C)C)c(O)c(C(C)(C)C)c1	222 to 225
CC1CN(Cc2ccc(Cl)nc2)C(=C[N+](=O)[O-])N1 (stereo unspecified)	170 to 174
CCS(=O)(=O)CCn1c(=N)sc2cc(C(F)(F)C(F)(F)F)ccc21	125
CC(C)N(C=Nc1ncc(I)c(Cl)n1)C(C)C	97 to 100
CC(C)c1cccc(C(C)C)c1NC(=O)Nc1nnnn1Cc1ccccc1	195 to 197
O=C(Nc1ccc(C(F)(F)F)cc1)C12CC3CC(CC(C3)C1)C2	189 to 193
COC(=O)Cc1ccc(OCCNC(=O)C2Cc3ccccc3N2S(=O)(=O)c2ccc(-c3cc(C)ccc3C)cc2)cc1 (stereo unspecified)	56 to 59
CCCCCC(COc1ccc(C(=O)O)cc1)c1ccc2c(c1)C(C)(C)CC(C)(C)O2 (racemic)	94 to 96
COC(=O)[C@H](Cc1ccc(O)cc1)NC(=O)C1(NC(=O)[C@@H](SC(C)=O)C(C)C)CCCC1	157 to 158
N#CCc1ccccc1-c1ccc(C(=O)O)cc1	218 to 220
O=c1c(CCc2nc3ccccc3s2)cc2cccnc2n1-c1cccc([N+](=O)[O-])c1	178 to 179
CCCCOCCOc1ccc(-c2ccc3c(c2)C=C(C(=O)Nc2ccc(/C(Cc4nccn4CCC)=N/OC)cc2)CCN3CC(C)C)cc1	159 to 161
NC(=O)C(c1ccc(C(=O)O)cc1)C(CCc1ccccc1)c1ccccc1N1CCCCC1 (stereo unspecified)	167 to 170

Structure (SMILES)	melting point [°C]
CCCCCCCCCCCCCCCCCC(=O)NC(C)C(=O)NC(CCC(=O)NC(C=CCCC(=O)O)C(=O)O)C(=O)O (stereo unspecified)	200
c1cncc(CCNc2nc(-c3cccs3)ncc2-n2cccn2)c1	133 to 134
O=S1(=O)CCC(NCCNC2CCS(=O)(=O)C2)C1 (stereo unspecified)	60 to 85
CC(C)OC(=O)C(C(=O)Nc1nccs1)=C1SCS1	174 to 175
Cc1ccc(S(=O)(=O)OC2=C(Br)C(=O)c3ccc4c(c3C2=O)CCC(C)(C)O4)cc1	168 to 170
O=C(CC1c2ccccc2C(=O)N1c1ccc2ccc(Cl)nc2n1)N1CCC2(CC1)OCCO2 (stereo unspecified)	238 to 239
N=C(N)Nc1nc(-c2ccccc2[N+](=O)[O-])cs1	176 to 178
CCCOc1cccc(-c2nn(C(C)c3oc4ccccc4c(=O)c3-c3cccc(F)c3)c3ncnc(N)c23)c1 (stereo unspecified)	178 to 182
N#Cc1onc(-c2ccccc2)c1-c1ccc(S(N)(=O)=O)cc1	218 to 219
Cc1cc(NCC(C)C)c([N+](=O)[O-])c2nnnn12	185 to 187
CC1(c2cc(NC(=O)Nc3ccc(OCCN4CCOCC4)c4ccccc34)n(-c3ccccc3)n2)CCCCC1	147 to 149
N#CC(Cc1ccccc1)(Cc1ccccc1)C(=O)O	194
CC(C)(C)c1cc(OCC(=O)O)cc(C(C)(C)C)c1O	172 to 173
CC(CNCc1ccccc1O)NCc1ccccc1O (stereo unspecified)	57 to 58
NCc1cccc(CNC(=O)C2Cc3ccccc3N2S(=O)(=O)c2ccc(-c3cccc(C(F)(F)F)c3)cc2)c1 (stereo unspecified)	116
CNC(=O)Oc1ccc(NC(=O)C(Cl)(Cl)Cl)c(C)c1	185 to 187
OCC1OC(n2c(Cl)nc3cc(Cl)c(Br)cc32)C(O)C1O (stereo unspecified)	158 to 159
N#Cc1cnn2c3c(c(C(=O)O)nc12)CCN3C1CCCCC1	253 to 255
CN=C(SCc1ccc(OC)cc1)C1(c2cccnc2)CCCCC1CCO (stereo unspecified)	145 to 146
CC(O)(CCCc1ccc(Cl)cc1)c1ccc(OCc2ccc3ccccc3n2)cc1 (stereo unspecified)	110 to 112

Further lines, results first:

melting point [°C]	Structure (SMILES)
184 to 186	O=C(Nc1ccc(O)c(C(=O)O)c1)OCc1ccccc1
230	O=C(O)c1cc2cc(F)c(Cl)cc2nc1Cl
138 to 139	CCC1(C2CCN(c3ncnc4cc(OC)c(OC)cc34)CC2)CO1 (stereo unspecified)
154 to 155	Cc1cccc2c3c(n(Cc4ccc(F)cc4)c12)CCCC3=O
152 to 154	COc1cc2ccn(C(=O)c3ccc(-c4ccccc4)c(C)c3)c2cc1OCCN(C)C
175 to 178	COc1ccc(C(C)NC2=Nc3ccc(Cl)cc3C(=O)N(C)C2)cc1OC (stereo unspecified)
94 to 95	CCOC(=O)c1ccc(N2CCCC2=O)cc1
222 to 224	COc1ccc(C(=O)c2sc(Nc3ccc(OCc4ccccc4)cc3)nc2N)cc1
175 to 178	Nc1cccc2nc(=O)cccc12
185 to 186	COC(=O)CN(C(=O)CCCOc1ccc2c(c1)CN1CC(=O)NC1=N2)C1CCCCC1
142 to 144	COC(=O)CCSc1c(C(N)=O)sc2ccc(OC)cc12
99 to 101	COC(=O)c1cccc(F)c1OC
177 to 179	Cc1cc(C(=O)NCc2cccc([N+](=O)[O-])c2)c(OCC(=O)O)cc1F
61 to 62	COC(=O)c1nc(Cl)c(Cl)c(Cl)c1I
73.5 to 75.5	Cc1cccc(NC(=O)OCC2CCCCN2C)c1 (stereo unspecified)
120 to 121	Cn1cnc(=O)c(-c2cccc(Br)c2)c1
65 to 67	COc1ccc(Sc2ccccc2CC#N)cc1
226 to 230	COc1cc(F)c2c(c1)Oc1ccccc1S2(=O)=O

melting point [°C]	Structure (SMILES)
105 to 106	COc1cc2c(cc1OC)C(=O)CC(C)(C)O2
120 to 121	CC(=O)ON(C)C(=O)/C=C/c1ccc(-n2c(C)ccc2C)cc1
73 to 74	COc1cc2c(c(OC)c1/C=C/c1ccc(COC(C)=O)cc1)C(C)(C)CCC2(C)C
195 to 200	CC(NC(=O)Cc1cc(F)cc(F)c1)C(=O)NC1(F)NC(=O)Cc2ccccc21 (stereo unspecified)
134 to 135	CC(=O)NCCC1CCc2ccn3nc(C)c(C)c3c21 (stereo unspecified)
142 to 144	COc1ccc(C#N)cc1C=NO
111 to 113	CCOC(=O)C(=Cc1ccccc1)S(=O)(=O)NC(C)(C)C
246 to 248	COc1ccc(Cc2cnc(N)nc2N)c(OC)c1O
242 to 244	CNC1NC(=O)N(c2ccccc2)C(=O)N1N (stereo unspecified)
191 to 195	CC1(C)CC(NC(=O)C(=O)NNC(=O)COc2ccc(C(=O)c3ccccc3)c(O)c2)CC(C)(C)N1
164 to 165	CCOC(=O)c1sc(NC(C)=O)nc1CCl
105 to 108	CC(=O)C(Oc1cc(Cl)cc(C#N)c1)C(C)=O
176 to 177	Cc1nc2ccccc2n2cnc(C(=O)OC(C)(C)C)c12
205 to 206	CC(C)CNC(=O)COc1ccc(C2=NNC(=O)NC2C)cc1Cl (stereo unspecified)
150 to 152	COc1ccc2[nH]c(C(=NO)c3ccccc3)cc2c1
198 to 201	COC(=O)Nc1nc2cc(S(=O)CC(C)C)ccc2[nH]1 (stereo unspecified)
128 to 130	Cc1noc2ccc(Oc3ncccc3C(=O)NCc3ccc(C(C)(C)O)cc3)cc12
118 to 119	O=C(CNC(=O)c1ccccc1)c1ccsc1
